For one series, the system named is caspase-3 and -7. In words: Caspase-3/7 activity in MBT-2 cells. The class given is cell-based. The conditions noted are these: 12 and 24 hours treatment. The procedure: To assure that the EGCG and nanogold mediated apoptosis are triggered by the caspase effectors, we then examined expressions of the apoptosis-dependent enzymes caspase-3 and -7. Refer to FIG. 8 for a schematic diagram of Caspase-3/7 activity after EGCG and/or nanogold treatment for 12 and 24 hours.

The test system of series [1] is bladder cancer cells (MBT-2). Put plainly: viability of MBT-2 cells at 48 hour post-treatment. Type of series: cell-based. The procedure: (§1) Firstly, to evaluate the tumor cytotoxicity of EGCG and/or nanogold, we examined viabilities of bladder cancer cells (MBT-2) and African green monkey kidney cells (Vero cell acts as a normal cell) at 48 hour post-EGCG or -nanogold treatment. Referring to FIG. 3, which is a schematic diagram of the cell viability of Vero cells and MBT-2 cells under different treating concentration of EGCG and nanogold. […] Refer to FIG. 4 for a schematic diagram of the concentrations of EGCG and nanogold mediated the 50% of cell growth inhibition of Vero cell and MBT-2 cell (IC50). […] In contrast, the Vero cell numbers were not changed in the presence of EGCG or nanogold.

Series [2] deals with MBT-2 cells. Put plainly: cell cycle of MBT-2 cells. The class given is cell-based. The procedure:
Following, the mechanism of the EGCG and nanogold mediated cell apoptosis was investigated. Refer to FIG. 7 for a table of the cell cycle of MBT-2 cell treated by various concentrations of EGCG and nanogold. […] The MBT-2 cells otherwise underwent G0/G1 arrest when the doses of EGCG (50 μM) and nanogold (2 ppm) were increased.

Series [3] relates to MBT-2 cells. In words: apoptosis detection by Annexin-V and PI staining, flow cytometry. The class given is cell-based. Particulars: in 48 hours. The text has this: Cell apoptosis features some morphological alterations, such as chromatin condensation, membrane blebbing, inter-nucleosomal degradation of DNA, and apoptotic body formation. Previous study reported that EGCG can induce apoptosis via the PI3K/Akt pathway and Bcl-2 family proteins in T24 human bladder cancer cells. […] The cells in test were subjected to flow cytometry analysis, whereby apoptotic bodies can be detected by Annexin-V and PI staining Refer to FIG. […]
In general terms: Flow cytometry measures light scatter and fluorescence of single cells or particles in a stream.

Series [4] in a line: superoxide radical scavenging effect. Type of series: biochemical. Particulars: compared to vitamin E alone. The text has this:
Refer to FIG. 2 for a schematic diagram of the anti-oxidant effect of the EGCG-nanogold complexes.

Series [5] relates to African green monkey kidney cells (Vero cell). Put plainly: viability of Vero cells at 48 hour post-treatment. Type of series: cell-based. Particulars: in the presence of EGCG or nanogold. The procedure: as §1

On to epigallocatechin-3-gallate [EGCG], for which, in the series with caspase-3 and -7, the “caspase-3 and -7, fold increase versus the vehicle-alone controls” value came to 2.42±0.43 fold. In addition, the “MBT-2 cell numbers, % of the control” value in series [1] (EGCG and nanogold 2 ppm, combined or alone) is listed as 49.7%. Also, in series [1] (different treating concentrations), the “viability of MBT-2 cells” value is “reduce the viability of MBT-2 cells in a concentration-dependent manner”. Further, the cell cycle arrest entry in the series with MBT-2 cells [2] (increased doses: EGCG 50 μM, nanogold 2 ppm) was “G0/G1 arrest”; with MBT-2 cells [2] (lower doses) it was “arrested in the S phase”. Further, the “percentage of Annexin-V-positive cells” value with MBT-2 cells [3] is given as 16.6%. In addition, the “superoxide radical scavenging activity” value in series [4] is “significant superoxide radical scavenging activity”. In addition, the Vero cell numbers entry in series [5] is “not changed”.

These data come from patent publication US8759546B2, “Physical nano-complexes for preventing and treating cancer and method for manufacturing the same” (Gold Nanotech Inc., priority 2012, dated 2014).
